These results are taken from PubChem BioAssay (NCI).

Test systems include SW-620 colon; SK-MEL-28 melanoma; HCT-15 colon; SK-MEL-2 melanoma; UACC-257 melanoma; SN12C renal; RXF 393 renal; RPMI-8226 leukemia; UO-31 renal; MOLT-4 leukemia.
What all share (assay): DTP human tumour cell line panel, 48 h

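Five concentrations, 48 hours, 96-well plates. The concentration for 50% growth inhibition is given as GI50. At the TGI there is no net growth.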

Turning to `CCO/C=C1\N=C(c2ccccc2Br)OC1=O`, the TGI in the assay on SW-620 colon, in the assay on SK-MEL-28 melanoma, in the assay on HCT-15 colon, with SK-MEL-2 melanoma, in the assay on UACC-257 melanoma and with SN12C renal was more than 100 µM throughout. Moreover, the total growth inhibition concentration (TGI) in the assay on RXF 393 renal, in the assay on RPMI-8226 leukemia, in the assay with UO-31 renal and in the assay with MOLT-4 leukemia was more than 100 µM each time.

For `CCC1(O)C(=O)OCc2c1cc1n(c2=O)Cc2cc3cc(N)ccc3nc2-1` (stereo unspecified), the TGI with SW-620 colon was more than 100 µM; in the assay on SK-MEL-28 melanoma it was 41.8 µM; in the assay on HCT-15 colon, 3.55 µM; with SK-MEL-2 melanoma, 0.826 µM; in the assay with UACC-257 melanoma, 1.89 µM; in the assay on SN12C renal, 0.697 µM. Also, the TGI in the assay with RXF 393 renal was 1.12 µM; in the assay with RPMI-8226 leukemia it was 4.94 µM; in the assay on UO-31 renal, 0.0864 µM; in the assay with MOLT-4 leukemia it was less than 0.01 µM. The GI50 in the assay on SK-MEL-28 melanoma was 0.493 µM; with RXF 393 renal, 0.126 µM.

For the compound `COc1cc2c(c(OC)c1OC)-c1ccc(SC)c(=O)cc1[C@@H](NC1OC(CO)C(O)C(O)C1O)CC2` (stereo partly specified), the GI50 with SW-620 colon was 0.0294 µM; in the assay with SK-MEL-28 melanoma it was 1.65 µM; with HCT-15 colon it was 0.0374 µM; in the assay on SK-MEL-2 melanoma, 0.0237 µM; in the assay on UACC-257 melanoma it was 0.447 µM; in the assay on SN12C renal it was 0.0557 µM. Also, the GI50 is 0.0613 µM with RXF 393 renal, 0.0444 µM in the assay on RPMI-8226 leukemia, 0.0864 µM with UO-31 renal and 0.0418 µM in the assay on MOLT-4 leukemia. The TGI in the assay on SW-620 colon is more than 100 µM; with SK-MEL-28 melanoma, more than 100 µM; with HCT-15 colon, more than 100 µM; in the assay on SK-MEL-2 melanoma it was 0.081 µM; with UACC-257 melanoma, more than 100 µM; with SN12C renal, more than 100 µM. The TGI in the assay on RXF 393 renal, with RPMI-8226 leukemia, with UO-31 renal and in the assay with MOLT-4 leukemia was more than 100 µM in each case.

Regarding `CC(=O)c1c(C(F)(F)F)n([O-])c2ccc(C)cc2[n+]1=O`, the GI50 in the assay on SW-620 colon was 3.54 µM; in the assay with SK-MEL-28 melanoma, 23.3 µM; in the assay on HCT-15 colon, 2.45 µM; in the assay with SK-MEL-2 melanoma it was 15.5 µM; in the assay with UACC-257 melanoma, 4.42 µM; in the assay on SN12C renal, 1.5 µM. Also, the GI50 with RXF 393 renal is 10.2 µM; in the assay with RPMI-8226 leukemia, 0.686 µM; in the assay with UO-31 renal, 4.39 µM; in the assay with MOLT-4 leukemia, 0.0504 µM. In addition, the TGI in the assay with SW-620 colon is more than 100 µM; with SK-MEL-28 melanoma, more than 100 µM; with HCT-15 colon, 39.4 µM; with SK-MEL-2 melanoma, more than 66.5 µM; in the assay on UACC-257 melanoma, more than 46.8 µM; with SN12C renal, 4.72 µM. In addition, the total growth inhibition concentration (TGI) is more than 100 µM in the assay with RXF 393 renal, 4.04 µM in the assay with RPMI-8226 leukemia and 5.2 µM with MOLT-4 leukemia.

Consider `Cn1cc(-c2nonc2-c2cn(C)c3ccccc23)c2ccccc21`, for which the 50% growth inhibitory concentration (GI50) in the assay on SW-620 colon is 0.425 µM; in the assay on SK-MEL-28 melanoma, 4.68 µM; in the assay with HCT-15 colon, 0.537 µM; in the assay with SK-MEL-2 melanoma, 1.22 µM; with UACC-257 melanoma it was 50.4 µM; in the assay on SN12C renal it was 1.76 µM. In addition, the GI50 with RXF 393 renal was 0.827 µM; with RPMI-8226 leukemia, 0.967 µM; in the assay on UO-31 renal it was 0.972 µM; in the assay with MOLT-4 leukemia, 1.72 µM. The TGI in the assay on SW-620 colon, in the assay with SK-MEL-28 melanoma, in the assay on HCT-15 colon, in the assay with SK-MEL-2 melanoma, in the assay with UACC-257 melanoma and in the assay with SN12C renal was more than 100 µM throughout. Also, the TGI in the assay with RXF 393 renal was 21.9 µM; in the assay with RPMI-8226 leukemia, more than 100 µM; in the assay on UO-31 renal, more than 100 µM; in the assay with MOLT-4 leukemia, more than 100 µM.

In the case of `COc1ccc(-c2cc(=O)c3c(OC)c(OC)c(OC)c(OC)c3o2)cc1`, the TGI in the assay on SW-620 colon, in the assay with SK-MEL-28 melanoma, in the assay with HCT-15 colon, in the assay on SK-MEL-2 melanoma, with UACC-257 melanoma and with SN12C renal was more than 100 µM throughout. Moreover, the TGI with RXF 393 renal, in the assay with RPMI-8226 leukemia, in the assay on UO-31 renal and in the assay on MOLT-4 leukemia was more than 100 µM each time.

On to `Cc1cccc(NC(=O)c2sc3nc4c(cc3c2N)CN(Cc2ccccc2)CC4)c1C`, for which the GI50 is 0.207 µM in the assay with SW-620 colon; 4.06 µM in the assay with SK-MEL-28 melanoma; 0.176 µM in the assay with HCT-15 colon; 0.328 µM in the assay on SK-MEL-2 melanoma; more than 50 µM in the assay with UACC-257 melanoma; 0.313 µM in the assay on SN12C renal. In addition, the GI50 with RXF 393 renal was 0.133 µM; in the assay on RPMI-8226 leukemia, 0.198 µM; in the assay on UO-31 renal, 0.917 µM; in the assay on MOLT-4 leukemia, 0.286 µM. Also, the TGI with SW-620 colon is more than 50 µM; in the assay on SK-MEL-28 melanoma, more than 50 µM; in the assay on HCT-15 colon it was more than 50 µM; in the assay on SK-MEL-2 melanoma, 25.8 µM; in the assay on UACC-257 melanoma, more than 50 µM; in the assay on SN12C renal, more than 50 µM. In addition, the TGI was 2.11 µM with RXF 393 renal, more than 50 µM in the assay with RPMI-8226 leukemia, more than 50 µM with UO-31 renal and more than 50 µM with MOLT-4 leukemia.

`COc1ccc2cc(-c3c(-c4ccncc4)nc(-c4ccc(S(C)=O)cc4)n3C)ccc2c1` (stereo unspecified): the GI50 is more than 25 µM with SW-620 colon; 24.2 µM in the assay with SK-MEL-28 melanoma; 9.57 µM in the assay with HCT-15 colon; more than 25 µM in the assay with SK-MEL-2 melanoma; more than 25 µM in the assay with UACC-257 melanoma; 18 µM in the assay on SN12C renal. Further, the GI50 with RXF 393 renal is 2.78 µM; in the assay with RPMI-8226 leukemia, 17 µM; in the assay with UO-31 renal it was 6.42 µM; in the assay on MOLT-4 leukemia it was 17.2 µM. In addition, the total growth inhibition concentration (TGI) with SW-620 colon, in the assay with SK-MEL-28 melanoma, in the assay with HCT-15 colon, in the assay on SK-MEL-2 melanoma, in the assay on UACC-257 melanoma and in the assay with SN12C renal was more than 25 µM in each case. The TGI in the assay with RXF 393 renal, in the assay with RPMI-8226 leukemia, in the assay with UO-31 renal and in the assay on MOLT-4 leukemia was more than 25 µM in each case.

Regarding `CN1COc2c(n(C)c(=O)[nH]c2=O)C1`, the TGI in the assay with SW-620 colon, in the assay on SK-MEL-28 melanoma, with HCT-15 colon, with SK-MEL-2 melanoma, in the assay on UACC-257 melanoma and in the assay on SN12C renal was more than 100 µM in each case. Further, the TGI with RXF 393 renal was 97.9 µM; in the assay with RPMI-8226 leukemia, 90.8 µM; in the assay with UO-31 renal, more than 100 µM; in the assay with MOLT-4 leukemia, more than 100 µM.

Take `COc1cc(/C=C/[N+](=O)[O-])cc(Br)c1OC`: the GI50 in the assay on SW-620 colon was 1.57 µM; with SK-MEL-28 melanoma, 2.39 µM; in the assay with HCT-15 colon it was 2.68 µM; in the assay on SK-MEL-2 melanoma it was 2.67 µM; in the assay on UACC-257 melanoma, 2.88 µM; in the assay with SN12C renal, 3.94 µM. For the same compound, the GI50 with RXF 393 renal is 1.61 µM; in the assay with RPMI-8226 leukemia, 2.59 µM; in the assay on UO-31 renal, 1.86 µM; in the assay with MOLT-4 leukemia, 3.52 µM. The TGI in the assay with SW-620 colon came to 3.37 µM; with SK-MEL-28 melanoma, 6.14 µM; in the assay with HCT-15 colon, 8.98 µM; in the assay with SK-MEL-2 melanoma, 5.71 µM; in the assay with UACC-257 melanoma, 10.4 µM; in the assay on SN12C renal it was 13.1 µM. Besides, the concentration for total growth inhibition (TGI) with RXF 393 renal came out at 3.01 µM; in the assay on RPMI-8226 leukemia it was 6.64 µM; with UO-31 renal it was 3.49 µM; in the assay on MOLT-4 leukemia it was 53.6 µM.

As to `CCn1c2ccccc2c2cc(/C=C(/C#N)C(N)=O)ccc21`, the GI50 was 4.86 µM with SW-620 colon; 40.1 µM in the assay on SK-MEL-28 melanoma; 14.8 µM in the assay with HCT-15 colon; 11.4 µM in the assay with SK-MEL-2 melanoma; 4.18 µM in the assay on UACC-257 melanoma; 43.6 µM in the assay with SN12C renal. The GI50 with RXF 393 renal was 2.57 µM; with RPMI-8226 leukemia, 7.94 µM; in the assay with UO-31 renal, 11.7 µM; in the assay on MOLT-4 leukemia it was 6.66 µM. Moreover, the TGI with SW-620 colon was more than 100 µM; in the assay with SK-MEL-28 melanoma, more than 100 µM; with HCT-15 colon, more than 100 µM; in the assay with SK-MEL-2 melanoma it was more than 60.4 µM; in the assay with UACC-257 melanoma, 15.8 µM; in the assay on SN12C renal, more than 100 µM. For the same compound, the concentration for total growth inhibition (TGI) is 19.3 µM with RXF 393 renal, more than 84.7 µM in the assay on RPMI-8226 leukemia, more than 29.6 µM with UO-31 renal and more than 100 µM in the assay on MOLT-4 leukemia.

In the case of `O=[N+]([O-])c1cc(S(=O)(=O)Oc2ccccc2)ccc1Cl`, the GI50 with SW-620 colon was 1.56 µM; in the assay with SK-MEL-28 melanoma it was 2.67 µM; with HCT-15 colon, 3.56 µM; in the assay with SK-MEL-2 melanoma it was 10.7 µM; with UACC-257 melanoma, 1.6 µM; in the assay on SN12C renal, 3.56 µM. Also, the GI50 in the assay on RXF 393 renal is 5.57 µM; in the assay with RPMI-8226 leukemia it was 3.33 µM; in the assay with UO-31 renal it was 1.75 µM; in the assay on MOLT-4 leukemia, 2.17 µM. For the same compound, the concentration for total growth inhibition (TGI) with SW-620 colon was 3.59 µM; in the assay on SK-MEL-28 melanoma, 6.4 µM; in the assay on HCT-15 colon, 12.5 µM; in the assay on SK-MEL-2 melanoma it was 26.1 µM; with UACC-257 melanoma it was 3.1 µM; in the assay with SN12C renal, 13.6 µM. Further, the TGI with RXF 393 renal was 17.7 µM; with RPMI-8226 leukemia, 8.29 µM; in the assay with UO-31 renal it was 3.17 µM; in the assay on MOLT-4 leukemia it was 45.1 µM.

`COc1ccc(C=O)c(NC(=O)C(C)C)c1`: the TGI in the assay with SW-620 colon is more than 10 µM; with SK-MEL-28 melanoma it was more than 100 µM; in the assay with HCT-15 colon it was more than 100 µM; in the assay on SK-MEL-2 melanoma it was more than 100 µM; with UACC-257 melanoma, more than 100 µM; in the assay on SN12C renal it was 57.6 µM. In addition, the TGI is 64.5 µM in the assay with RXF 393 renal, 66.3 µM in the assay on RPMI-8226 leukemia, 82.6 µM with UO-31 renal and 74.7 µM in the assay with MOLT-4 leukemia.

On to `C[CH2][Pb]([CH2]C)([CH2]C)[O]C(=O)c1ccc2ccccc2n1`, for which the GI50 with SW-620 colon, in the assay on SK-MEL-28 melanoma, in the assay on HCT-15 colon, with SK-MEL-2 melanoma, in the assay on UACC-257 melanoma and in the assay on SN12C renal was more than 10 µM throughout. In addition, the GI50 in the assay with RXF 393 renal, in the assay with RPMI-8226 leukemia, with UO-31 renal and with MOLT-4 leukemia was more than 10 µM throughout. Moreover, the TGI in the assay with SW-620 colon, with SK-MEL-28 melanoma, in the assay with HCT-15 colon, in the assay with SK-MEL-2 melanoma, in the assay with UACC-257 melanoma and in the assay on SN12C renal was more than 10 µM throughout. For the same compound, the TGI with RXF 393 renal, in the assay with RPMI-8226 leukemia, in the assay on UO-31 renal and in the assay on MOLT-4 leukemia was more than 10 µM in each case.
